According to patent US6949571B2, “1,2-dihydropyridine compounds, process for preparation of the same and use thereof” (Eisai Co., Ltd., priority 2000, dated 2005):
Structures can show the parent of a compound that is named as a salt.

These compounds were tested on AMPA receptor. Conditions: Table 2; suppression of AMPA-induced calcium influx into nerve cells.
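Further: primary rat embryonic cortical neurons grown on an astrocyte layer in 96-well plates, used after at least 8 to 10 days in culture, Fura2-AM fluorescence ratio at 340/380 nm excitation.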
Protocol: Cerebral cortex was cut out from the brain of rat of gestational 18 days and treated with trypsin and DNase to disperse the cells. The cells were flown by MEM containing 10% of serum, sown in a culture bottle and astrocytes were proliferated. The astrocytes were re-dispersed by trypsin and sown in a 96-well plate. After incubation for one week, it was confirmed that the astrocytes covered all over the bottom and then the nerve cells of cerebral cortex which was dispersed by the above method were sown thereupon. After incubation for 24 hours, the medium was changed, the incubation was carried out for one week and, after that, the medium was changed to that containing 1 μM of MK-801. Nerve cells which were incubated for not shorter than 8 to 10 days were used.
Calcium influx into the cells was measured using Fura2-AM which was a calcium-sensitive fluorescent dye. It was treated in a medium containing Fura2-AM for 1 hour, incorporated into the cells, exchanged to a Tyrode solution containing 1 μM MK-801 and stimulation was carried out using 2 μM AMPA. Change in the amount of calcium flown into the cells were measured as the change in the fluorescent intensity at the exciting wave length of 340/380 nm.

SMILES | IC50 [nM]
N#Cc1ccccc1-c1cc(-c2ccccn2)cn(-c2ccc(CO)cc2)c1=O [Example 148, 3-(2-Cyanophenyl)-5-(2-pyridyl)-1-(4-hydroxymethylphenyl)-1,2-dihydropyridin-2-one] | 800
N#CCc1ccc(-n2cc(-c3ccccn3)cc(-c3ccccc3C#N)c2=O)cc1 [Example 150, 3-(2-Cyanophenyl)-5-(2-pyridyl)-1-(4-cyanomethylphenyl)-1,2-dihydropyridin-2-one] | 300
N#CCc1ccccc1-n1cc(-c2ccccn2)cc(-c2ccccc2C#N)c1=O [Example 151, 3-(2-Cyanophenyl)-5-(2-pyridyl)-1-(2-cyanomethylphenyl)-1,2-dihydropyridin-2-one] | 300
CCS(=O)(=O)c1ccc(-n2cc(-c3ccccn3)cc(-c3ccccc3C#N)c2=O)cn1 [Example 152, 3-(2-Cyanophenyl)-5-(2-pyridyl)-1-(2-ethylsulfonylpyridin-5-yl)-1,2-dihydropyridin-2-one] | 4000
CN(C)Cc1ccccc1-c1cc(-c2ccccn2)cn(-c2ccccc2)c1=O [Example 154, 3-(2-Dimethylaminomethylphenyl)-5-(2-pyridyl)-1-phenyl-1,2-dihydropyridin-2-one dihydrochloride] | 5000
N#Cc1ccccc1-c1cc(-c2ccccn2)cn(-c2ccccn2)c1=O [Example 159, 3-(2-Cyanophenyl)-1-(2-pyridyl)-5-(2-pyridyl)-1,2-dihydropyridin-2-one] | 1600
N#Cc1ccccc1-c1cc(-c2ccc(O)cn2)cn(-c2ccccc2)c1=O [Example 163, 3-(2-Cyanophenyl)-5-(5-hydroxypyridin-2-yl)-1-phenyl-1,2-dihydropyridin-2-one] | 8200
N#Cc1ccccc1-c1cc(-c2cccc[n+]2[O-])cn(-c2ccccc2)c1=O [Example 173, 3-(2-Cyanophenyl)-5-(2-pyridyl 1-oxide)-1-phenyl-1,2-dihydropyridin-2-one] | 4200
O=c1c(NC23CC4CC(CC(C4)C2)C3)cc(-c2ccccn2)cn1-c1ccccc1 [Example 176, 3-(1-Adamantylamino)-5-(2-pyridyl)-1-phenyl-1,2-dihydropyridin-2-one] | 5400
N#Cc1ccccc1-c1cc(-c2nc3ccccc3n2-c2ccccc2)cn(-c2ccccc2)c1=O [Example 182, 3-(2-Cyanophenyl)-5-(1-phenylbenzimidazol-2-yl)-1-phenyl-1,2-dihydropyridin-2-one] | 6000
O=c1c(C=Cc2ccccn2)cc(-c2ccccn2)cn1-c1ccccc1 [Example 187, 3-(2-Pyridylethenyl)-5-(2-pyridyl)-1-phenyl-1,2-dihydropyridin-2-one] | 6100
O=c1c(Sc2ccc(Cl)cc2)cc(-c2ccccn2)cn1-c1ccccc1 [Example 188, 3-(4-Chlorophenylthio)-5-(2-pyridyl)-1-phenyl-1,2-dihydropyridin-2-one] | 8500
Cc1cccc(-c2cc(-c3ccccc3C#N)c(=O)n(-c3ccccc3)c2)n1 [Example 195, 3-(2-Cyanophenyl)-5-(6-methylpyridin-2-yl)-1-phenyl-1,2-dihydropyridin-2-one] | 200
Cc1ccc(-c2cc(-c3ccccc3C#N)c(=O)n(-c3ccccc3)c2)nc1 [Example 196, 3-(2-Cyanophenyl)-5-(5-methylpyridin-2-yl)-1-phenyl-1,2-dihydropyridin-2-one] | 300
Cc1ccnc(-c2cc(-c3ccccc3C#N)c(=O)n(-c3ccccc3)c2)c1 [Example 197, 3-(2-Cyanophenyl)-5-(4-methylpyridin-2-yl)-1-phenyl-1,2-dihydropyridin-2-one] | 2900
N#Cc1ccccc1-c1cc(-c2ccncn2)cn(-c2ccccc2)c1=O [Example 202, 3-(2-Cyanophenyl)-1-phenyl-5-(4-pyrimidinyl)-1,2-dihydropyridin-2-one] | 700
N#Cc1ccccc1-c1cc(-c2cccnn2)cn(-c2ccccc2)c1=O [Example 204, 3-(2-Cyanophenyl)-1-phenyl-5-(3-pyridazyl)-1,2-dihydropyridin-2-one] | 1600
N#Cc1ccccc1-c1cc(C2=COCCO2)cn(-c2ccccc2)c1=O [Example 209, 3-(2-Cyanophenyl)-5-(5.6-dihydro-1.4-dioxin-2-yl)-1-phenyl-1,2-dihydropyridin-2-one] | 7000
N#Cc1ccccc1-c1cc(-c2cccc3ccccc23)cn(-c2cccnc2)c1=O [Example 210, 3-(2-Cyanophenyl)-5-(1-naphthyl)-1-(3-pyridyl)-1,2-dihydropyridin-2-one] | 5200
N#Cc1ccccc1-c1cc(-c2ccccn2)cn(-c2ccc(N)cc2)c1=O [Example 215, 1-(4-Aminophenyl)-3-(2-cyanophenyl)-5-(2-pyridyl)-1,2-dihydropyridin-2-one] | 100

More lines, in order of falling IC50, values ahead:

IC50 [nM] | SMILES
3600 | N#Cc1ccccc1-c1cc(-c2ccc3ccccc3c2)cn(-c2cccnc2)c1=O [Example 211, 3-(2-Cyanophenyl)-5-(2-naphthyl)-1-(3-pyridyl)-1,2-dihydropyridin-2-one]
3300 | O=c1c(Nc2ccccc2)cc(-c2ccccn2)cn1-c1ccccc1 [Example 174, 3-Phenylamino-5-(2-pyridyl)-1-phenyl-1,2-dihydropyridin-2-one]
2300 | N#Cc1ccccc1-c1cc(-c2ccccn2)cn(C2CCCC2)c1=O [Example 171, 3-(2-Cyanophenyl)-1-cyclopentyl-5-(2-pyridyl)-1,2-dihydropyridin-2-one]
2300 | O=c1c(-c2ccccc2Cl)cc(-c2nc3ccccc3o2)cn1-c1ccccc1 [Example 184, 3-(2-Chlorophenyl)-5-(2-benzoxazolyl)-1-phenyl-1,2-dihydropyridin-2-one]
2200 | O=c1c(-c2ccccc2O)cc(-c2ccccn2)cn1-c1ccc(F)cc1 [Example 142, 3-(2-Hydroxyphenyl)-5-(2-pyridyl)-1-(4-fluorophenyl)-1,2-dihydropyridin-2-one]
2000 | O=c1c(C23CC4CC(CC(C4)C2)C3)cc(-c2ccccn2)cn1-c1ccccc1 [Example 178, 3-(1-Adamantyl)-5-(2-pyridyl)-1-phenyl-1,2-dihydropyridin-2-one]
2000 | COc1ccc(-c2cc(-c3ccccc3C#N)c(=O)n(-c3ccccc3)c2)cn1 [Example 200, 3-(2-Cyanophenyl)-5-(2-methoxypyridin-5-yl)-1-phenyl-1,2-dihydropyridin-2-one]
1700 | O=c1c(-c2ccccc2Cl)cc(COc2ccccc2)cn1-c1ccccc1 [Example 185, 3-(2-Chlorophenyl)-5-phenoxymethyl-1-phenyl-1,2-dihydropyridin-2-one]
1600 | O=c1c(-c2ccccc2CO)cc(-c2ccccn2)cn1-c1ccccc1 [Example 147, 3-(2-Hydroxymethylphenyl)-5-(2-pyridyl)-1-phenyl-1,2-dihydropyridin-2-one]
1100 | O=c1c(C2CCCCC2)cc(-c2ccccn2)cn1-c1ccccc1 [Example 192, 3-Cyclohexyl-5-(2-pyridyl)-1-phenyl-1,2-dihydropyridin-2-one]
700 | O=c1c(-c2ccccc2O)cc(-c2ccccn2)cn1-c1ccccc1 [Example 141, 3-(2-Hydroxyphenyl)-5-(2-pyridyl)-1-phenyl-1,2-dihydropyridin-2-one]
600 | O=c1c(-c2nc3ccccc3[nH]2)cc(-c2ccccn2)cn1-c1ccccc1 [Example 190, 3-(1H-Benzimidazol-2-yl)-5-(2-pyridyl)-1-phenyl-1,2-dihydropyridin-2-one]
500 | CCN(CC)Cc1cccc(-c2cc(-c3ccccc3C#N)c(=O)n(-c3ccccc3)c2)n1 [Example 157, 3-(2-Cyanophenyl)-5-(6-diethylaminomethyl-2-pyridyl)-1-phenyl-1,2-dihydropyridin-2-one]
500 | N#Cc1ccccc1-c1cc(-c2ccccn2)cn(C2=CCCN(Cc3ccccc3)C2)c1=O [Example 180, 3-(2-Cyanophenyl)-5-(2-pyridyl)-1-(1-benzyl-1,2,3,6-tetrahydropyridin-5-yl)-1,2-dihydropyridin-2-one]
500 | COc1cccc(-c2cc(-c3ccccc3C#N)c(=O)n(-c3ccccc3)c2)n1 [Example 206, 3-(2-Cyanophenyl)-5-(2-methoxypyridin-6-yl)-1-phenyl-1,2-dihydropyridin-2-one]
400 | O=c1c(-c2cccc(O)n2)cc(-c2ccccn2)cn1-c1ccccc1 [Example 165, 3-(2-Hydroxypyridin-6-yl)-1-phenyl-5-(2-pyridyl)-1,2-dihydropyridin-2-one]
400 | Cc1nc(-c2ccccc2-c2cc(-c3ccccn3)cn(-c3ccccc3)c2=O)no1 [Example 193, 3-[2-(5-Methyl-1,2,4-oxadiazol-3-yl)phenyl]-1-phenyl-5-(2-pyridyl)-1,2-dihydropyridin-2-one]
300 | N#Cc1ccccc1-c1cc(-c2ccccn2)cn(-c2ccc3nc(N)sc3c2)c1=O [Example 166, 1-(2-Aminobenzothiazol-6-yl)-3-(2-cyanophenyl)-5-(2-pyridyl)-1,2-dihydropyridin-2-one]
300 | N#Cc1ccccc1-c1cc(-c2ncccc2O)cn(-c2ccccc2)c1=O [Example 198, 3-(2-Cyanophenyl)-5-(3-hydroxypyridin-2-yl)-1-phenyl-1,2-dihydropyridin-2-one]
200 | N#Cc1ccccc1-c1cc(-c2nccs2)cn(-c2ccccc2)c1=O [Example 201, 3-(2-Cyanophenyl)-1-phenyl-5-(2-thiazoyl)-1,2-dihydropyridin-2-one]
100 | O=c1c(-c2ccccc2Cl)cc(-c2ccccn2)cn1-c1cccc(O)c1 [Example 143, 3-(2-Chlorophenyl)-5-(2-pyridyl)-1-(3-hydroxyphenyl)-1,2-dihydropyridin-2-one]
100 | N#Cc1ccccc1-c1cc(-c2ccccn2)cn(-c2ccccc2CO)c1=O [Example 149, 3-(2-Cyanophenyl)-5-(2-pyridyl)-1-(2-hydroxymethylphenyl)-1,2-dihydropyridin-2-one]
10 | CN(C)CCOc1cccc(-n2cc(-c3ccccn3)cc(-c3ccccc3Cl)c2=O)c1 [Example 144, 3-(2-Chlorophenyl)-5-(2-pyridyl)-1-(3-dimethylaminoethoxyphenyl)-1,2-dihydropyridin-2-one]
